# Assays:
# [1] = target: T1, DOR (Mus musculus, UniProt P32300); test: [35S]GTP-γ-S binding assay, agonist stimulation, DOR; conditions: for DOR EC50: stimulation of [35S]GTP-γ-S binding, no stim = no stimulation at 10 µM
# [2] = target: T2, hMOR (Homo sapiens, UniProt P35372); test: [35S]GTP-γ-S binding assay, agonist stimulation, MOR; type: biochemical; conditions: stimulation of [35S]GTP-γ-S binding; no stim = no stimulation at 10 µM
# [3] = target: T3, hKOR (Homo sapiens, UniProt P41145); test: [35S]GTP-γ-S binding assay, antagonist shift design, KOR; type: biochemical
# T3 sequence (P41145 whole entry): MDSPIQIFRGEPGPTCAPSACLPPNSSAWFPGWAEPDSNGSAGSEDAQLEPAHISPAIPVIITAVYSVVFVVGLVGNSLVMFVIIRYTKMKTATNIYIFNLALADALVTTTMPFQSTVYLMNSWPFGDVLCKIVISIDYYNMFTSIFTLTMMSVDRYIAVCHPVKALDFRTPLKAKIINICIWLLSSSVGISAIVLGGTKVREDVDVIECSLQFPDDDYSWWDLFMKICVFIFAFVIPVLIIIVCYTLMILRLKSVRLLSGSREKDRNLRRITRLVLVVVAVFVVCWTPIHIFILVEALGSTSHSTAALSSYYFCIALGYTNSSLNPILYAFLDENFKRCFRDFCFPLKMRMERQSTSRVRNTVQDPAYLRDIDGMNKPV
# [4] = target: T2, hMOR; test: [35S]GTP-γ-S binding assay, antagonist shift design, MOR; type: biochemical
# [5] = target: T1, DOR; test: [35S]GTP-γ-S binding assay, antagonist shift design, DOR; type: biochemical
# [6] = system: mice; test: 55 °C warm-water tail-withdrawal assay, i.c.v. administration; type: in vivo, Male ICR mice; conditions: mouse
# [7] = system: mice; type: in vivo, Male ICR mice; conditions: mouse, i.c.v.
# [8] = target: T3, hKOR; test: [35S]GTP-γ-S binding assay, agonist stimulation, KOR; type: biochemical; conditions: stimulation of [35S]GTP-γ-S binding; no stim = no stimulation at 10 µM
# [9] = target: hDOR (Homo sapiens, UniProt P41143); test: Radioligand displacement binding, [3H]DADLE, CHO cell membranes expressing hDOR; conditions: 18a vs 17b, 18d vs 17f
# Sequence of hDOR (P41143 whole entry): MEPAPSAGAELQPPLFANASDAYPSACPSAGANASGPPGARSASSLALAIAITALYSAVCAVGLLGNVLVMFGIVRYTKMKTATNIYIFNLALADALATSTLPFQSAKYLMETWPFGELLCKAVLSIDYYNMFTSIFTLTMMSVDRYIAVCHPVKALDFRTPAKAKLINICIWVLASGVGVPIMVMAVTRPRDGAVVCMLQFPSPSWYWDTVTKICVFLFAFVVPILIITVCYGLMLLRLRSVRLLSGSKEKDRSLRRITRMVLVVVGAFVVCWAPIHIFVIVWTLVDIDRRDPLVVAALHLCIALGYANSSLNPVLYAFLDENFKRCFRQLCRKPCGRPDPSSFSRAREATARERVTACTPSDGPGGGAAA
# T2 sequence (P35372 whole entry): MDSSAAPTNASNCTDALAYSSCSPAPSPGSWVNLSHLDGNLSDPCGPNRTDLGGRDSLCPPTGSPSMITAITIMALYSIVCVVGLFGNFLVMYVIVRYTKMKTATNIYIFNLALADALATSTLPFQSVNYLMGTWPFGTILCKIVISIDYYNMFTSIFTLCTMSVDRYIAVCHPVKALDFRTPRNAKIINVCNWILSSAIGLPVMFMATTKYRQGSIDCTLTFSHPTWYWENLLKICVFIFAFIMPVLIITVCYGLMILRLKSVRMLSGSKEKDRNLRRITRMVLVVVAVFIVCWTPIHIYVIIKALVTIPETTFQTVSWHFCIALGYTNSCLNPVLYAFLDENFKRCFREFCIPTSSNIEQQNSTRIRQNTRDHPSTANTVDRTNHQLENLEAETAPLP
# T1 sequence (P32300 whole entry): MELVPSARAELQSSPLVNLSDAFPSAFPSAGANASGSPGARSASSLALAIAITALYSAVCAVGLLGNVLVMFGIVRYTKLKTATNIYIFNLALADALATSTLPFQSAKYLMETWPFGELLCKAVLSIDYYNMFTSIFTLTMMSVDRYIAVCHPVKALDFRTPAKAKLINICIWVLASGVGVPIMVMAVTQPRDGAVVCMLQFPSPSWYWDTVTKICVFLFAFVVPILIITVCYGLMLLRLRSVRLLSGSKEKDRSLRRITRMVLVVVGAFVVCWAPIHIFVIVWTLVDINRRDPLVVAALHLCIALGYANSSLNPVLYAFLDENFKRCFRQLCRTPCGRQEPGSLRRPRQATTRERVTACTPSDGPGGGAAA
Structure (SMILES),DOR EC50 [1],MOR EC50 [2],Kb [3] [nM],Kb [4] [nM],Kb [5] [nM],dose for maximal antinociception [6] [nmol],fold weaker analgesic effect than other tested ligands ([6]; tail-withdrawal) [fold],EC50 [1] [nM],toxicity on repeated administration [7],KOR EC50 [8],fold weaker in binding to DOR compared to 14-benzyloxy counterpart [9] [fold]
"CO[C@@]12Cc3cc(-c4ccc(Cl)cc4)cnc3[C@@H]3Oc4c(O)ccc5c4[C@@]31CCN(CC1CC1)[C@@H]2C5 [17a, 5′-(4-Chlorophenyl)-17-(cyclopropylmethyl)-6,7-didehydro-4,5α-epoxy-3-hydroxy-14-methoxypyrido[2′,3′:6,7]morphinan]",no stim ^b,no stim,–,–,–,–,–,–,–,–,–
"Oc1ccc2c3c1O[C@H]1c4ncc(-c5ccc(Cl)cc5)cc4C[C@@]4(OCc5ccccc5)[C@@H](C2)N(CC2CC2)CC[C@]314 [17b, 14-(Benzyloxy)-5′-(4-chlorophenyl)-17-(cyclopropylmethyl)-6,7-didehydro-4,5α-epoxy-3-hydroxypyrido[2′,3′:6,7]morphinan]",no stim,no stim,13 ± 3,11 ± 1,0.64 ± 0.11,–,–,–,–,–,–
"Oc1ccc2c3c1O[C@H]1c4ncc(-c5ccc(Cl)cc5)cc4C[C@@]4(OC/C=C/c5ccccc5)[C@@H](C2)N(CC2CC2)CC[C@]314 [17c, 5′-(4-Chlorophenyl)-14-cinnamyloxy-17-(cyclopropylmethyl)-6,7-didehydro-4,5α-epoxy-3-hydroxypyrido[2′,3′:6,7]morphinan]",no stim,no stim,–,–,–,–,–,–,–,–,–
"Oc1ccc2c3c1O[C@H]1c4ncc(-c5ccc(Cl)cc5)cc4C[C@@]4(OCCCc5ccccc5)[C@@H](C2)N(CC2CC2)CC[C@]314 [17d, 5′-(4-Chlorophenyl)-17-(cyclopropylmethyl)-6,7-didehydro-4,5α-epoxy-3-hydroxy-14-(3-phenylpropoxy)pyrido[2′,3′:6,7]morphinan]",no stim,–,–,–,0.091 ± 0.01,1,–,–,–,–,–
"CO[C@@]12Cc3cc(-c4ccc(Cl)cc4)cnc3[C@@H]3Oc4c(O)ccc5c4[C@@]31CCN(C)[C@@H]2C5 [17e, 5′-(4-Chlorophenyl)-6,7-didehydro-4,5α-epoxy-3-hydroxy-14-methoxy-17-methylpyrido[2′,3′:6,7]morphinan]",no stim,–,17 ± 0.13,–,1.6 ± 0.35,10,6,–,–,–,–
"CN1CC[C@]23c4c5ccc(O)c4O[C@H]2c2ncc(-c4ccc(Cl)cc4)cc2C[C@@]3(OCc2ccccc2)[C@H]1C5 [17f, 14-Benzyloxy-5′-(4-chlorophenyl)-6,7-didehydro-4,5α-epoxy-3-hydroxy-17-methylpyrido[2′,3′:6,7]morphinan]",–,–,83 ± 14,–,4.54 ± 0.81,–,–,11 ± 1,–,–,–
"CN1CC[C@]23c4c5ccc(O)c4O[C@H]2c2ncc(-c4ccc(Cl)cc4)cc2C[C@@]3(OC/C=C/c2ccccc2)[C@H]1C5 [17g, 5′-(4-Chlorophenyl)-14-cinnamyloxy-6,7-didehydro-4,5α-epoxy-3-hydroxy-17-methylpyrido[2′,3′:6,7]morphinan]",–,–,–,–,–,1,–,0.59 ± 0.05,undue toxicity,–,–
"CN1CC[C@]23c4c5ccc(O)c4O[C@H]2c2ncc(-c4ccc(Cl)cc4)cc2C[C@@]3(OCCCc2ccccc2)[C@H]1C5 [17h, 5′-(4-Chlorophenyl)-6,7-didehydro-4,5α-epoxy-3-hydroxy-17-methyl-14-(3-phenylpropoxy)pyrido[2′,3′:6,7]morphinan]",–,–,6.9 ± 0.02,–,–,1,–,0.27 ± 0.03,undue toxicity,no stim,–
"O=C(O[C@@]12Cc3cc(-c4ccc(Cl)cc4)cnc3[C@@H]3Oc4c(O)ccc5c4[C@@]31CCN(CC1CC1)[C@@H]2C5)c1ccccc1 [18a, 14-Benzoyloxy-5′-(4-chlorophenyl)-17-(cyclopropylmethyl)-6,7-didehydro-4,5α-epoxy-3-hydroxypyrido[2′,3′:6,7]morphinan]",no stim,no stim,126 ± 13,261 ± 36,218 ± 2,–,–,–,–,no stim,45
"O=C(Cc1ccccc1)O[C@@]12Cc3cc(-c4ccc(Cl)cc4)cnc3[C@@H]3Oc4c(O)ccc5c4[C@@]31CCN(CC1CC1)[C@@H]2C5 [18b, 5′-(4-Chlorophenyl)-17-(cyclopropylmethyl)-6,7-didehydro-4,5α-epoxy-3-hydroxy-14-(phenylacetoxy)pyrido[2′,3′:6,7]morphinan]",no stim,no stim,7 ± 2,0.48 ± 0.06,0.37 ± 0.04,–,–,–,–,–,–
"O=C(CCc1ccccc1)O[C@@]12Cc3cc(-c4ccc(Cl)cc4)cnc3[C@@H]3Oc4c(O)ccc5c4[C@@]31CCN(CC1CC1)[C@@H]2C5 [18c, 5′-(4-Chlorophenyl)-17-(cyclopropylmethyl)-6,7-didehydro-4,5α-epoxy-3-hydroxy-14-(3-phenylpropionyloxy)pyrido[2′,3′:6,7]morphinan]",no stim,no stim,14 ± 2,13 ± 1.7,1.86 ± 0.21,–,–,–,–,–,–
"CN1CC[C@]23c4c5ccc(O)c4O[C@H]2c2ncc(-c4ccc(Cl)cc4)cc2C[C@@]3(OC(=O)c2ccccc2)[C@H]1C5 [18d, 14-Benzoyloxy-5′-(4-chlorophenyl)-6,7-didehydro-4,5α-epoxy-3-hydroxy-17-methylpyrido[2′,3′:6,7]morphinan]",no stim,–,426 ± 47,1270 ± 166,45 ± 6,–,–,–,–,no stim,10
"CN1CC[C@]23c4c5ccc(O)c4O[C@H]2c2ncc(-c4ccc(Cl)cc4)cc2C[C@@]3(OC(=O)Cc2ccccc2)[C@H]1C5 [18e, 5′-(4-Chlorophenyl)-6,7-didehydro-4,5α-epoxy-3-hydroxy-17-methyl-14-(phenylacetoxy)pyrido[2′,3′:6,7]morphinan]",–,–,198 ± 20,–,3.38 ± 0.34,–,–,19 ± 6,–,–,–
"CN1CC[C@]23c4c5ccc(O)c4O[C@H]2c2ncc(-c4ccc(Cl)cc4)cc2C[C@@]3(OC(=O)CCc2ccccc2)[C@H]1C5 [18f, 5′-(4-Chlorophenyl)-6,7-didehydro-4,5α-epoxy-3-hydroxy-17-methyl-14-(3-phenylpropionyloxy)pyrido[2′,3′:6,7]morphinan]",–,–,18 ± 0.2,–,1.64 ± 0.3,–,–,5.52 ± 0.53,–,–,–
"CN1CC[C@]23c4c5ccc(O)c4O[C@H]2[C@@H](O)C=C[C@H]3[C@H]1C5 [Morphine, reference compound]",–,–,–,–,–,10,–,–,–,–,–
"Oc1ccc2c3c1O[C@H]1c4ncc(-c5ccc(Cl)cc5)cc4C=C4[C@@H](C2)N(CC2CC2)CC[C@]431 [compound 23, 5′-(4-Chlorophenyl)-17-(cyclopropylmethyl)-3-hydroxy-6,7,8,14-tetradehydro-4,5α-epoxypyrido[2′,3′:6,7]morphinan]",no stim,no stim,19 ± 3,8 ± 0.89,0.58 ± 0.1,–,–,–,–,no stim,–

# Source: PMC3499949 (Journal of medicinal chemistry, 2012)
